Results on seven compounds are retold here after patent US6410556B1, “Modulators of protein tyrosine phosphateses (PTPases)” (Novo Nordisk A/S, priority 1999, dated 2002).

SMILES strings stand for the structures.

This test addresses T1, truncated form of PTP1B (first 321 amino acids) (Homo sapiens, UniProt P18031).
T1 construct: a truncated form of PTPI B (corresponding to the first 321 amino acids); made in house; host or cells: E. coli
T1 sequence (P18031 1-321 limits assumed): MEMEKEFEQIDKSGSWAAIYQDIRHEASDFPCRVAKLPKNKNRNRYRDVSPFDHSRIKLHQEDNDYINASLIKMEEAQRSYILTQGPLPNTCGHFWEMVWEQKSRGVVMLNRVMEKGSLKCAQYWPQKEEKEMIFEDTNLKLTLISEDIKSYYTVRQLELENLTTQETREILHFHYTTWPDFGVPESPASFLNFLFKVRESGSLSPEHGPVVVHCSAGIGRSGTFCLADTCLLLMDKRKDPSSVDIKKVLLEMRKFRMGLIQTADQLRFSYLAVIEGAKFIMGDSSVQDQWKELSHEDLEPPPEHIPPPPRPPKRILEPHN
The experiment in a line: Inhibition of PTP1B, p-nitrophenyl phosphate substrate, enzyme kinetic analysis. It is filed as biochemical. Particulars: truncated PTP1B expressed in E. coli; substrate p-nitrophenyl phosphate 0.16 to 10 mM; 50 mM HEPES pH 7.0; 25° C., 60 minutes. The procedure: The compounds are evaluated for biological activity with a truncated form of PTPI B (corresponding to the first 321 amino acids), which was expressed in E. coli and purified to apparent homogeneity using published procedures well-known to those skilled in the art. The enzyme reactions are carried out using standard conditions essentially as described by Burke et al. (Biochemistry 35; 15989-15996 (1996)). The assay conditions are as follows. Appropriate concentrations of the compounds of the invention are added to the reaction mixtures containing different concentrations of the substrate, p-nitrophenyl phosphate (range: 0.16 to 10 mM—final assay concentration). The buffer used was 50 mM HEPES pH 7.0, 100 mM sodium chloride, 0.1% (w/v) bovine serum albumin, 5 mM glutathione, and 1 mM EDTA. The reaction was started by addition of the enzyme and carried out in microtiter plates at 25° C. for 60 minutes. The reactions are stopped by addition of NaOH. The enzyme activity was determined by measurement of the absorbance at 405 nm with appropriate corrections for absorbance at 405 nm of the compounds and p-nitrophenyl phosphate. The data are analyzed using nonlinear regression fit to classical Michaelis Menten enzyme kinetic models. Inhibition is expressed as Ki values in nM.
Take `O=C(O)C(=O)Nc1sc2c(c1C(=O)O)CC(CNC(=O)C(=O)c1c[nH]c3ccccc13)NC2` (stereo not shown) [Example 36, 5-((2-(1H-indol-3-yl)-2-oxo-acetylamino)methyl)-2-(Oxalyl-amino)-4,5,6,7-tetrahydro-thieno[2,3-c]pyridine-3-carboxylic acid]: the affinity corresponds to a Ki of 830 nM.

As to `O=C(O)C(=O)Nc1sc2c(c1C(=O)O)CCNC2CNC1=NS(=O)(=O)c2ccccc21` (stereo not shown) [Example 11, 7-((1,1-Dioxo-1H-benzo[d]isothiazol-3-ylamino)methyl)-2-(oxalyl-amino)-4,5,6,7-tetrahydro-thieno[2,3-c]pyridine-3-carboxylic acid], the affinity corresponds to a Ki of 240 nM.

The compound `O=C(O)C(=O)Nc1sc2c(c1C(=O)O)CC(CN1Cc3c(O)cccc3C1=O)NC2` (stereo not shown) [Example 8, 5-(4-Hydroxy-1-oxo-1,3-dihydro-isoindol-2-ylmethyl)-2-(oxalyl-amino)-4,5,6,7-tetrahydro-thieno[2,3-c]pyridine-3-carboxylic acid] showed a Ki of 250 nM.

`COC(=O)c1cc(OC)cc2c1CN(CC1Cc3c(sc(NC(=O)C(=O)O)c3C(=O)O)CN1)C2=O` (stereo not shown) [Example 46, 5-(6-Methoxy-4-methoxycarbonyl-1-oxo-1 ,3-dihydro-isoindol-2-ylmethyl)-2-(oxalyl-amino)-4,5,6,7-tetrahydro-thieno[2,3-c]pyridine-3-carboxylic acid] had a Ki of 300 nM.

With `O=C(O)C(=O)Nc1sc2c(c1C(=O)O)CC(CNC1=NS(=O)(=O)c3ccccc31)NC2` (stereo not shown) [Example 10, 5-((1,1-Dioxo-1H-benzo[d]isothiazol-3-ylamino)methyl)-2-(oxalyl-amino)-4,5,6,7-tetrahydro-thieno[2,3-c]pyridine-3-carboxylic acid], affinity was put at a Ki of 270 nM.

`COc1cccc2c1C(=O)N(CC1Cc3c(sc(NC(=O)C(=O)O)c3C(=O)O)CN1)C2` (stereo not shown) [Example 12, 5-(7-Methoxy-1-oxo-1,3-dihydro-isoindol-2-ylmethyl)-2-(oxalyl-amino)-4,5,6,7-tetrahydro-thieno[2,3-c]pyridine-3-carboxylic acid] gave a Ki of 570 nM.

In turn, `CC(=O)N(Cc1ccc(Oc2ccccc2)cc1)C[C@@H]1NCCc2c1sc(NC(=O)C(=O)O)c2C(=O)O` [Example 42, 7-(S)-((Acetyl-(4-phenoxy-benzyl)amino)methyl)-2-(oxalyl-amino)-4,5,6,7-tetrahydro-thieno[2,3-c]pyridine-3-carboxylic acid] showed a Ki of 220 nM.

As usually defined, the Ki is the dissociation constant of the complex between target and ligand, obtained from inhibition or displacement. Lower therefore signals higher affinity.
